Values after ≈ are worked out from the molar mass of the structure shown. Square brackets hold non-standard residues; d marks the D form. Peptide text beside a SMILES is read from it. Dip = N[C@H](C(=O)O)C(c1ccccc1)c1ccccc1
Assays:
Escherichia coli [1] = test: Antibacterial activity against Escherichia coli NDM-1-resistant ATCC BAA-2452 incubated for 24 hrs by microtiter plate method; type: functional
Escherichia coli [2] = test: Antibacterial activity against Escherichia coli ATCC 25922 incubated for 24 hrs by microtiter plate method; type: functional
Klebsiella pneumoniae [3] = test: Antibacterial activity against Klebsiella pneumoniae ATCC 13883 […] incubated for 24 hrs by microtiter plate method; type: functional
Acinetobacter baumannii = test: Antibacterial activity against ciprofloxacin resistance Acinetobacter baumannii ATCC BAA1605 incubated for 24 hrs by microtiter plate method; type: functional
[4] = Selectivity ratio of MIC for antibacterial activity against Klebsiella pneumoniae ATCC 13883 to MIC for antibacterial activity against carbapenem-resistant Klebsiella pneumoniae ATCC BAA-2470; type: functional
Pseudomonas aeruginosa [5] = test: Antibacterial activity against Pseudomonas aeruginosa ATCC 27883 incubated for 24 hrs by microtiter plate method; type: functional
[6] = Selectivity ratio of MIC for antibacterial activity against Pseudomonas aeruginosa ATCC 10145 to MIC for antibacterial activity against imipenem-resistant Pseudomonas aeruginosa ATCC BAA-1744; type: functional
Staphylococcus aureus [7] = test: Antibacterial activity against methicillin resistant Staphylococcus aureus ATCC BAA-1556 incubated for 24 hrs by microtiter plate method; type: functional
Enterococcus faecalis [8] = test: Antibacterial activity against vancomycin-resistant Enterococcus faecalis ATCC 51575 incubated for 24 hrs by microtiter plate method; type: functional
Enterococcus faecalis [9] = test: Antibacterial activity against Enterococcus faecalis ATCC 29212 incubated for 24 hrs by microtiter plate method; type: functional
Staphylococcus aureus [10] = test: Antibacterial activity against Staphylococcus aureus ATCC 29213 incubated for 24 hrs by microtiter plate method; type: functional
Bacillus cereus = test: Antibacterial activity against Bacillus cereus ATCC 13061 incubated for 24 hrs by microtiter plate method; type: functional
Enterococcus faecium [11] = test: Antibacterial activity against vancomycin-resistant Enterococcus faecium ATCC 700221 incubated for 24 hrs by microtiter plate method; type: functional
Pseudomonas aeruginosa [12] = test: Antibacterial activity against imipenem resistant Pseudomonas aeruginosa ATCC BAA-1744 incubated for 24 hrs by microtiter plate method; type: functional
Enterococcus faecium [13] = test: Antibacterial activity against Enterococcus faecium ATCC 27270 incubated for 24 hrs by microtiter plate method; type: functional
Klebsiella pneumoniae [14] = test: Antibacterial activity against carbapenem-resistant Klebsiella pneumoniae ATCC BAA-2470 incubated for 24 hrs by microtiter plate method; type: functional
Streptococcus pneumoniae [15] = test: Antibacterial activity against multidrug resistant […] ATCC 700677 incubated for 24 hrs by microtiter plate method; type: functional
[16] = (§1) Hemolytic activity in human RBC assessed as hemolysis incubated for 2 hrs by spectrophotometer analysis; type: toxicity, cell-based, Erythrocyte; settings: human red blood cells (erythrocytes)
Bacillus subtilis = test: Antibacterial activity against Bacillus subtilis ATCC 6633 incubated for 24 hrs by microtiter plate method; type: functional
Streptococcus pneumoniae [17] = test: Antibacterial activity against […] ATCC 49619 incubated for 24 hrs by microtiter plate method; type: functional
Pseudomonas aeruginosa [18] = test: Antibacterial activity against Pseudomonas aeruginosa ATCC 10145 incubated for 24 hrs by microtiter plate method; type: functional
Erythrocyte = test: as §1; type: toxicity, cell-based; settings: erythrocyte, 2 h

With `N=C(N)NCCC[C@@H]1NC(=O)[C@H](CCCNC(=N)N)NC(=O)[C@H](C(c2ccccc2)c2ccccc2)NC(=O)[C@H](C(c2ccccc2)c2ccccc2)NC(=O)[C@H](C(c2ccccc2)c2ccccc2)NC(=O)[C@H](CCCNC(=N)N)NC1=O` (cyclo([Dip][Dip][Dip]RRR)) the MIC (Escherichia coli [1]) was 25 µg/mL (≈ 22 µM), the MIC (Escherichia coli [2]; Escherichia coli, ATCC 25922, 24 h, read-out: MIC) was 12.5 µg/mL (≈ 11 µM) and the MIC (Klebsiella pneumoniae [3]) was over 50 µg/mL. The MIC (Acinetobacter baumannii) was 25 µg/mL (≈ 22 µM), the Ratio [4] was 2 and the MIC (Pseudomonas aeruginosa [5]; Pseudomonas aeruginosa, ATCC 27883, 24 h, read-out: MIC) was 12.5 µg/mL (≈ 11 µM). For the same compound, the Ratio [6] was 2, the MIC (Staphylococcus aureus [7]; Staphylococcus aureus, ATCC BAA-1556, 24 h, read-out: MIC) was 3.1 µg/mL (≈ 2.72 µM) and the MIC (Enterococcus faecalis [8]) was 12.5 µg/mL (≈ 11 µM). The MIC (Enterococcus faecalis [9]) was 12.5 µg/mL (≈ 11 µM), the MIC (Staphylococcus aureus [10]; Staphylococcus aureus, ATCC 29213, read-out: MIC) was 3.1 µg/mL (≈ 2.72 µM) and the MIC (Bacillus cereus) was 6.2 µg/mL (≈ 5.45 µM). The MIC (Enterococcus faecium [11]) was 6.2 µg/mL (≈ 5.45 µM), the MIC (Pseudomonas aeruginosa [12]) was 25 µg/mL (≈ 22 µM) and the MIC (Enterococcus faecium [13]) was 3.1 µg/mL (≈ 2.72 µM). For the same compound, the MIC (Klebsiella pneumoniae [14]) was 12.5 µg/mL (≈ 11 µM), the MIC (Streptococcus pneumoniae [15]) was 25 µg/mL (≈ 22 µM) and the HC50 at 2 h [16] was 45 µg/mL. For the same compound, the MIC (Bacillus subtilis) was 3.1 µg/mL (≈ 2.72 µM), the MIC (Streptococcus pneumoniae [17]) was 50 µg/mL (≈ 43.9 µM) and the MIC (Pseudomonas aeruginosa [18]) was 50 µg/mL (≈ 43.9 µM).

`N=C(N)NCCC[C@@H]1NC(=O)[C@H](CCCNC(=N)N)NC(=O)[C@H](C(c2ccccc2)c2ccccc2)NC(=O)[C@H](C(c2ccccc2)c2ccccc2)NC(=O)[C@H](CCCNC(=N)N)NC(=O)[C@H](CCCNC(=N)N)NC(=O)[C@H](C(c2ccccc2)c2ccccc2)NC1=O` (stereo in doubt; 17C) showed an MIC (Pseudomonas aeruginosa [5]; 24 h) of over 100 µg/mL, an MIC (Staphylococcus aureus [7]; 24 h) of 12.5 µg/mL (≈ 9.66 µM) and an HC50 (Erythrocyte) of 145 µg/mL.

With `N=C(N)NCCC[C@@H]1NC(=O)[C@H](CCCNC(=N)N)NC(=O)[C@H](Cc2ccc3ccccc3c2)NC(=O)[C@H](Cc2ccc3ccccc3c2)NC(=O)[C@H](CCCNC(=N)N)NC(=O)[C@H](CCCNC(=N)N)NC(=O)[C@H](Cc2ccc3ccccc3c2)NC1=O` (stereo in doubt; 19C) the MIC (Escherichia coli [2]; 24 h) was 50 µg/mL (≈ 41.1 µM), the MIC (Pseudomonas aeruginosa [5]; 24 h) was 50 µg/mL (≈ 41.1 µM) and the MIC (Staphylococcus aureus [7]) was 6.2 µg/mL (≈ 5.1 µM). It also gave an MIC (Staphylococcus aureus [10]) of 6.2 µg/mL (≈ 5.1 µM) and an HC50 (Erythrocyte) of 110 µg/mL.

Reference: ChEMBL document CHEMBL5154681, “Small Amphiphilic Peptides: Activity Against a Broad Range of Drug-Resistant Bacteria and Structural Insight into Membranolytic Properties” (J Med Chem, 2022)
